Test results published in article PMC8767159, “Multiparameter Optimization of Trypanocidal Cruzain Inhibitors With In Vivo Activity and Favorable Pharmacokinetics” (Frontiers in Pharmacology, 2022).
Read-outs that look alike come from different tables or passages of the source.

What was measured:
[1] = Cytotoxicity MTS assay in HFF-1 fibroblasts; format: cell-based; details: human HFF-1 fibroblasts
Description: The synthesized compounds were evaluated for their cytotoxicity against HFF-1 cells using the MTS assay (Promega, Madison, WI) ([Barltrop et al., 1991]) as previously described ([Ferreira et al., 2019]). HFF-1 fibroblasts were plated at 2 × 10^3/well in 96-well culture plates in RPMI 1640 without phenol red enriched with 10% FCS and incubated overnight at 37°C and 5% CO2. Next, 7 concentrations (0.1–100 µM) of the compounds were added in 3-fold serial dilutions, each concentration in triplicate, and the plates were incubated for 72 h at 37°C and 5% CO2. Next, 20 µl of MTS was added to each well, and the plates were incubated for an additional 4 h at 37°C and 5% CO2. The absorbance was measured at 490 nm using a spectrophotometer, and the data were transferred to SigmaPlot 10.0 (Systat Software Inc., Erkrath, Germany) to determine the IC50 values. Doxorubicin (Sigma–Aldrich) was used as a positive control, and untreated wells (100% growth) were used as negative controls in all plates. All compounds were tested in two independent assays.

[2] = In vitro metabolic stability in mouse liver microsomes; format: in vitro ADME; details: mouse, liver microsomes
Description: Isolated mouse (BD Gentest, Bedford, MA) and human liver microsomes (XenoTech, Kansas City, KS) ([Plant, 2004]) were added at a final concentration of 0.25 mg/ml to a solution containing 40 mM dibasic potassium phosphate and 10 mM monobasic potassium phosphate. Stock solutions of compounds at 5 mM were prepared in 100% DMSO. A 50:50 quenching solution of acetonitrile (ACN) and methanol (MeOH) was prepared. An NADPH solution was prepared at 10 mM. The preparations containing the microsomes were added to each well of the incubation plate (450 µl), which was then heated to 37°C for 10 min. The compounds were added to the respective wells of the test plate (2 µl). Then, 300 µl of the microsome preparation was added to each well of the test plate. The test plate was heated under gentle rotation for 5 min at 37°C. Next, 90 µl of the mixture contained in the test plate was added to the incubation plate, making a final volume of 540 µl. Samples were collected at the following incubation times: 0, 5, 10, 15, 20, and 30 min. To the 0 min sample plate, quenching solution (180 µl), NADPH (6 µl), and the incubation plate mixture (54 µl) were added to each well. The sample plate was then sealed, homogenized, and stored at 4°C. Then, 54 µl of the NADPH solution was added to the incubation plate, which was homogenized. Before the collection of each sample at the established times, 45 µl of the quenching solution was added to each well of the corresponding sample plates. After reaching the incubation times, 60 µl of the mixture contained in the incubation plate was added to the corresponding sample plates. The sample plates were then sealed and stored at 4°C. After the collection of the last sample (30 min), all sample plates were centrifuged at 3,800 rpm for 30 min. The supernatant from each well was collected and transferred to clean plates for mass spectrometry. Five to 10 µl of each sample was injected into an AB Sciex Triple Quad 5500 LC-MS/MS instrument.
(§1) For the biotransformation experiments and analysis of metabolites in microsomes, an Ultra-High-Pressure Liquid Chromatography instrument (UHPLC, Thermo Accela, Waltham, MA) ([Spaggiari et al., 2014]) connected to an automatic sample injector and a 1250 series pump was used. The UHPLC system was connected to a Thermo Fisher (Waltham, MA) LTQ Orbitrap mass spectrometer. For all other analyses, an AB Sciex Triple Quad 5500 coupled to a UHPLC equipped with a UV 1290 diode detector (Agilent Technologies, Santa Clara, CA) and a CTC PAL self-collecting system (LEAP Technologies, Carrboro, NC) was used. Q1 MS positive ion mode (300–500 Da) was used to detect the ions of the parent compounds. The UV detector was operated in spectral mode (250–280 nm). A Hypersil Gold C18 (2.1 mm × 100 mm, 1.9 µm, Thermo Fisher) HPLC column was used. The mobile phases were solvent A (0.1% formic acid in water) and solvent B (0.1% formic acid in ACN). The flow was adjusted to 0.55 ml/min, and the injection volume was adjusted to […]. The gradient started with 1% solvent B for 0.4 min, reached 40% (solvent B) in 2.3 min and 95% (solvent B) in 0.67 min, was maintained for 0.5 min, and returned to the initial condition of 1%. This condition was maintained for 1 min before injection of the next sample. The peak area ratio (peak area of the test compounds/peak area of the control compounds) was converted to the percentage of remaining compound, with the 0 min time point ratio set to 100%. T½ and CLint were calculated from the percentage of remaining compound versus the incubation time. From the resulting function, the slope (k) was determined. The equations T1/2 (min) = ln(2)/k and CLint in vitro (μL/min/mg) = k*1000/0.25 were used to determine T½ and CLint.

[3] = In vivo pharmacokinetics in male CD1 mice; design: species or system mouse; details: for CLpu: plasma clearance corrected for the fraction unbound; for clearance / C0 / AUC / half-life / Vd / Cmax / Tmax / bioavailability: male, CD1, mouse, 0.5 mg/kg, mice; for clearance: plasma clearance, read-out: CLp (L/h/kg) IV (converted); for C0 / AUC / half-life / Vd / Cmax / Tmax / bioavailability: plasma; for Vd: read-out: VSS (L/kg) IV; for bioavailability: oral bioavailability
Description: The in vivo pharmacokinetic profiles of the compounds were determined using male CD1 mice weighing […] ([Davies and Morris, 1993]; [Liu and Jia, 2007]). The compounds were administered in a single dose orally (0.5 mg/kg) and intravenously (0.5 mg/kg). Stock solutions of the compounds in DMSO were diluted in Tween 80, PEG-400, and D5W (5% dextrose in water) at a ratio of 2:5:20:73 (v/v). The injection volume was 10 ml/kg. The remaining plasma concentration was monitored over time by LC-MS/MS by collecting blood samples (40 μl) at 10, 25, and 50 min and 1, 3, 6, 9, 12, and 24 h after administration of the compound.
as §1

[4] = Table S5, CLint/fu, read-out: CLint_u (L/h/kg) Mouse (converted)
[5] = Table S5, read-out: CLint (L/h/kg) Mouse (converted)
[6] = Table 6, PO 0.5 mg/kg, male CD1 mice
[7] = Table S6, IV, read-out: AUC (ng*h/mL) IV
[8] = Table S6, IV, read-out: T1/2(h) IV (converted)
[9] = Table S6, PO, read-out: AUC (ng*h/mL) PO
[10] = Table S6, PO, read-out: T1/2 (h) PO (converted)

| SMILES | IC50 at 72 h [1] [µM] | CLint scaled at 5 µM [2, 4] [L/h/kg] | CLint scaled at 5 µM [2, 5] [L/h/kg] | CLpu ([3]; Table S6) [mL/min/kg] | clearance ([3]; Table S6, IV) [L/h/kg] | C0 ([3]; Table S6, IV) [ng/mL] | AUC [3, 7] [ng·h/mL] | half-life [3, 8] [h] | Vd ([3]; Table S6, IV) [L/kg] | Cmax ([3]; Table S6, PO) [ng/mL] | Tmax ([3]; Table S6, PO) [min] | AUC [3, 9] [ng·h/mL] | half-life [3, 10] [h] | bioavailability ([3]; Table S6) [%] | further results |
| --- | --- | --- | --- | --- | --- | --- | --- | --- | --- | --- | --- | --- | --- | --- | --- |
| O=C(Cn1ccnc1[N+](=O)[O-])NCc1ccccc1 [BZ, benznidazole, reference compound] | > 100 | 4.43 | 4.43 | 16.7 | 1 | 961 | 1020 | 0.8 | 1.1 | 404 | 24 | 1040 | 1.5 | 90 | CLint scaled at 5 µM ([2]; Table 5, CLint/fu, read-out: CLint_u (L/h/kg) mouse (converted)): 4.4 L/h/kg; CLint scaled at 5 µM ([2]; Table 5, read-out: CLint (L/h/kg) mouse (converted)): 4.4 L/h/kg; AUC (ng*h/ml) PO [3, 6]: 1.040 ng·h/mL; T1/2 (h) PO [3, 6]: 1.5 h; CLpu ([3]; Table 6, IV): 16.7 mL/min/kg |
| O=C(COc1ccccc1)NCCc1nc2ccccc2[nH]1 [Compound 1] | > 100 | 72.1 | 72.1 | 289.8 | 4.01 | 988 | 250 | 0.21 | 1.02 | 21 | 19.2 | 22.5 | 0.73 | 9 | – |
| CC(=O)Nc1ccc(OCC(=O)NCCc2nc3ccccc3[nH]2)cc1 [Compound 2] | > 100 | < 4.43 | < 4.43 | 69.3 | 2.03 | 1040 | 506 | 0.63 | 1.03 | 54 | 49.8 | 125 | 1.21 | 25 | – |
| O=C(COc1ccc(N2C(=O)CCC2=O)cc1)NCCc1nc2ccccc2[nH]1 [Compound 4] | – | 20.9 | 20.8 | – | – | – | – | – | – | – | – | – | – | – | – |
| O=C(COc1ccc(NC(=O)CCCO)cc1)NCCc1nc2ccccc2[nH]1 [Compound 5] | > 100 | 4.51 | 4.43 | – | – | – | – | – | – | – | – | – | – | – | – |
| O=C(COc1cccc(N2C(=O)CCC2=O)c1)NCCc1nc2ccccc2[nH]1 [Compound 6] | – | 217 | 217 | – | – | – | – | – | – | – | – | – | – | – | – |
| O=C(COc1cccc(NC(=O)CCCO)c1)NCCc1nc2ccccc2[nH]1 [Compound 7] | – | 8.19 | 8.19 | – | – | – | – | – | – | – | – | – | – | – | – |
| O=C(COc1ccc2c(C(=O)O)cccc2c1)NCCc1nc2ccccc2[nH]1 [Compound 15] | – | 12.9 | 12.9 | – | – | – | – | – | – | – | – | – | – | – | – |
| O=C(COc1ccccc1)NCCc1nc2ccccc2n1CCOc1ccccc1Br [Compound 19] | – | 2580 | 305 | – | – | – | – | – | – | – | – | – | – | – | – |
| O=C(COc1ccccc1)NCCc1nc2ccccc2n1CCOc1ccccc1 [Compound 20] | > 30 | 1200 | 489 | – | – | – | – | – | – | – | – | – | – | – | – |
